# Several values for one entry are separate records, joined by “and”; a condition that tells them apart may be missing. Equal entries are not always repeated.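 Protocol summary: plate cells (96-well), add compound at 5 concentrations, incubate 48 h, interpolate endpoints linearly. GI50: concentration for 50% inhibition of growth. Definition used: TGI = concentration required for complete inhibition of growth.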
# Columns and labels:
# Test in all cases: DTP human tumour cell line panel, 48 h
# [1] = test system: EKVX NSCLC
# [2] = test system: OVCAR-3 ovarian
# [3] = test system: OVCAR-8 ovarian
# [4] = test system: SK-OV-3 ovarian
# [5] = test system: SNB-19 CNS
# [6] = test system: SNB-75 CNS
# [7] = test system: U251 CNS
# [8] = test system: ACHN renal
# [9] = test system: OVCAR-5 ovarian
# [10] = test system: MCF7 breast
Structure (SMILES),TGI [1] [µM],TGI [2],TGI [3],TGI [4],TGI [5] [µM],TGI [6] [µM],TGI [7],TGI [8],TGI [9],GI50 [2],GI50 [8] [µM],GI50 [10] [µM],TGI [10],GI50 [9],GI50 [3],GI50 [4],GI50 [5] [µM],GI50 [6] [µM],GI50 [7] [µM],GI50 [1] [µM]
O=C1CC[C@H]2CNC(=O)C[C@H]2C1,> 100,> 100 µM,> 100 µM,> 100 µM,> 100,> 100,> 100 µM,–,–,–,–,–,–,–,–,–,–,–,–,–
O=[N+]([O-])c1ccc(NSc2ccccc2)cc1,90.1,> 100 µM,45.6 µM,87.3 µM,> 100,–,> 100 µM,> 100 µM,> 100 µM,–,–,–,–,–,–,–,–,–,–,–
Cc1cccc2c3ccc4c(c3n(C)c12)C(=O)C=CC4=O,> 100,> 100 µM,> 100 µM,> 100 µM,> 100,> 100,–,–,–,–,–,–,–,–,–,–,–,–,–,–
COc1ccc(N=Cc2cc(OC)c(OC)c(OC)c2)cc1,> 100,> 100 µM,> 100 µM,> 100 µM,> 100,> 100,> 100 µM,> 100 µM,> 100 µM,> 100 µM,–,–,–,–,–,–,–,–,–,–
CN=C1NC(=O)/C(=C/c2ccc3ncccc3c2)S1,–,> 25 µM,> 25 µM,24.8 µM,> 25,> 21.2,> 25 µM,> 25 µM,> 25 µM,9.11 µM,6.77,6.21,> 25 µM,9.52 µM,7.73 µM,7.76 µM,9.5,3.8,5.19,–
CN(C)CCNC(=O)c1cccc2nc3c(Cl)cccc3nc12,32.9,> 63.6 µM,> 44.3 µM,> 31.6 µM,57,32.2,30.5 µM,30.5 µM,16.7 µM,–,–,–,–,–,–,–,–,–,–,–
COc1nc2c(cc1S(=O)(=O)c1ccccc1)CCc1c-2cnn1-c1ccccc1Cl,–,> 100 µM,> 100 µM,> 100 µM,> 100,> 100,> 100 µM,–,> 100 µM,8.17 µM,–,4.13,> 100 µM,> 100 µM,8.7 µM,> 100 µM,7.25,5.19,5.94,–
C[C@]12CCC(=O)C=C1CC[C@@H]1C2CC[C@]2(C)NC(=O)C(C#N)CC12 (stereo partly drawn),–,> 100 µM,> 100 µM,> 100 µM,–,> 100,> 100 µM,> 100 µM,> 100 µM,–,–,–,–,–,–,–,–,–,–,–
COc1ccc(CN2CCCC(C(=O)c3ccc(C(F)(F)F)cc3)C2)c(O)c1 (stereo not drawn),–,> 100 µM,> 100 µM,> 100 µM,> 100,> 100,> 100 µM,> 100 µM,66.1 µM,36.2 µM,33.6,18,54.7 µM,20.2 µM,36.6 µM,36.1 µM,26.3,18.4,26,–
O=S(=O)(O)C(O)/C=C/c1ccccc1 (stereo not drawn),> 100,> 100 µM,> 100 µM,> 100 µM,> 100,> 100,> 100 µM,> 100 µM,> 100 µM,–,–,–,–,–,–,–,–,–,–,–
C/C(=N\NC(N)=S)c1ccc(C)cc1C,> 100,> 100 µM,> 100 µM,> 100 µM,–,> 100,> 100 µM,> 100 µM,94.1 µM,–,–,–,–,–,–,–,–,–,–,–
OCc1c(-c2cccc3ccccc23)sc(-c2cccc3ccccc23)c1CO,25,26.5 µM,25.7 µM,29.3 µM,25.4,30.7,24.9 µM,25.1 µM,30.9 µM,–,–,–,–,–,–,–,–,–,–,–
CC1=CCCC(OC(N)=O)C1 (stereo not drawn),> 100,> 100 µM,> 100 µM,> 100 µM,> 100,> 100,> 100 µM,> 100 µM,> 100 µM,–,–,–,–,–,–,–,–,–,–,–
OCCNCO,> 100,> 100 µM,> 100 µM,> 100 µM,> 100,> 100,> 100 µM,> 100 µM,> 100 µM,–,–,–,–,–,–,–,–,–,–,–
CC(C)(C)C1=NC(S)NC(CCC(=O)Nc2ccccc2[N+](=O)[O-])=C1 (stereo not drawn),> 100,> 100 µM,> 100 µM,> 100 µM,> 100,–,> 100 µM,> 100 µM,> 100 µM,–,–,–,–,–,–,–,–,–,–,–
O=C(/C=C(\[O-])c1ccccc1)CCCCCCC(=O)/C=C(\[O-])c1ccccc1.O=C(/C=C(\[O-])c1ccccc1)CCCCCCC(=O)/C=C(\[O-])c1ccccc1.O=C(/C=C(\[O-])c1ccccc1)CCCCCCC(=O)/C=C(\[O-])c1ccccc1.[La+3].[La+3],> 50,–,> 50 µM,> 50 µM,> 50,48.2,> 50 µM,> 50 µM,> 50 µM,–,> 50,–,–,> 50 µM,> 50 µM,> 50 µM,> 50,9.33,> 50,> 50
COc1cc2c(cc1O)[C@H](Cc1ccc(Oc3cc(C[C@H]4c5cc(OC)c(OC)cc5CCN4C)ccc3OC)cc1)NCC2,–,22.4 µM,27.8 µM,–,31.9,21.8,24.3 µM,23.6 µM,35 µM,–,–,–,–,–,–,–,–,–,–,–
O=C1/C(=C/c2ccccc2)CN(C(=O)Oc2ccc(Cl)cc2)C/C1=C\c1ccccc1,26.7,10.6 µM,3.6 µM,20.5 µM,10.1,12.6,2.97 µM,8.86 µM,23.2 µM,–,–,–,–,–,–,–,–,–,–,–
COc1cc([C@@H]2c3cc4c(cc3[C@@H](NC(=O)c3cccc([N+](=O)[O-])c3)C3COC(=O)[C@@H]32)OCO4)cc(OC)c1O (stereo partly drawn),10.8,27.9 µM,7.06 µM,–,14.1,9.55,1.26 µM,1.62 µM,8.54 µM,–,–,–,–,–,–,–,–,–,–,–
Cc1c(C(=O)/C=C/c2cccc3ccccc23)[n+](=O)c2ccccc2n1[O-],27.3,22.7 µM,24.9 µM,32.6 µM,29.7,27.2,29.1 µM,29.4 µM,28.5 µM,–,–,–,–,–,–,–,–,–,–,–
COC(=O)c1c2c(c(C)[n+]([O-])c1C)C(=O)C=CC2=O,5.12,1.05 µM,1.24 µM,5.38 µM,3.31,3.12,2.83 µM,3.77 µM,3.23 µM,0.314 µM,1.9,–,–,1.76 µM,0.339 µM,2.26 µM,1.67,1.72,1.48,2.02

Structure (SMILES),TGI [1] [µM],TGI [2],TGI [3],TGI [4],TGI [5] [µM],TGI [6] [µM],TGI [7],TGI [8],TGI [9],GI50 [2],GI50 [8] [µM],GI50 [10] [µM],TGI [10],GI50 [9],GI50 [3],GI50 [4],GI50 [5] [µM],GI50 [6] [µM],GI50 [7] [µM],GI50 [1] [µM]
NS(=O)(=O)c1ccc(-n2nc(-c3ccc(Br)cc3)ccc2=O)cc1,–,> 10 µM,> 10 µM,> 10 µM,> 10,> 10,> 10 µM,> 10 µM,> 10 µM,> 10 µM,> 10,> 10,> 10 µM,> 10 µM,> 10 µM,> 10 µM,> 10,> 10,> 10,–
Cn1cc(C2=C(c3ccc(OC[C@@H](O)CO)cc3)C(=O)NC2=O)c2ccccc21,–,> 25 µM,> 25 µM,> 25 µM,> 25,> 25,> 25 µM,> 25 µM,> 25 µM,> 25 µM,> 25,> 25,> 25 µM,> 25 µM,> 25 µM,> 25 µM,> 25,2.23,> 25,–
O=C1NC(=O)C2C(=O)NC(=O)C1C2(c1ccccc1)c1ccc(Cl)cc1 (stereo not drawn),> 100,> 100 µM,> 100 µM,> 100 µM,> 100,> 100,–,> 100 µM,> 100 µM,–,–,–,–,–,–,–,–,–,–,–
Cc1nc2nnc(C)n2c2c1C(=O)Nc1ccccc1N2,> 100,> 100 µM,> 100 µM,> 100 µM,> 100,> 100,> 100 µM,> 100 µM,–,–,–,–,–,–,–,–,–,–,–,–
CC1=C[C@@H]2Cc3occc3C(C)(C)[C@@H]2CC1,33,31.5 µM,37.5 µM,> 100 µM,> 10,33.5,32.7 µM,29.4 µM,50.3 µM,–,–,–,–,–,–,–,–,–,–,–
CCCCCCCCCCCCCCC1OC(=O)c2ccccc21 (stereo not drawn),> 100,> 100 µM,> 100 µM,> 100 µM,> 100,> 100,> 100 µM,> 100 µM,> 100 µM,–,–,–,–,–,–,–,–,–,–,–
O=c1[nH]c(=O)n(C2CC(O)C(CO)O2)cc1C#Cc1c(F)c(F)c(F)c(F)c1F (stereo not drawn),> 100,> 100 µM,> 100 µM,> 100 µM,> 100,> 100,> 100 µM,> 100 µM,> 100 µM,–,–,–,–,–,–,–,–,–,–,–
COC(=O)C(CC(=O)c1cc2c(cc1I)OCO2)Cc1cc(OC)c(OC)c(OC)c1I (stereo not drawn),> 100,> 100 µM,> 100 µM,> 100 µM,> 100,–,> 100 µM,> 100 µM,> 100 µM,–,–,–,–,–,–,–,–,–,–,–
COC(=O)c1c(OC)cccc1C(=O)O,> 100,> 100 µM,> 100 µM,> 100 µM,> 100,> 100,> 100 µM,> 100 µM,> 100 µM,–,–,–,–,–,–,–,–,–,–,–
Cc1cccc(C(C)(C)C)c1NC(=O)C(=O)Cc1nc2ccccc2s1,> 100,> 100 µM,> 100 µM,> 100 µM,> 100,> 100,> 100 µM,> 100 µM,> 100 µM,–,–,–,–,–,–,–,–,–,–,–
NC1(CCCCCCCCCCC(=O)O)CNCCNCCNCCNC1,> 100,> 100 µM,> 100 µM,> 100 µM,77.6,–,–,> 100 µM,45.6 µM,–,–,–,–,–,–,–,–,–,–,–
C#CC(C)(C)Oc1cc(O)c2c(=O)c3ccccc3n(C)c2c1,> 100,> 100 µM,> 100 µM,> 100 µM,> 100,> 100,> 100 µM,> 100 µM,> 100 µM,–,–,–,–,–,–,–,–,–,–,–
CCCCn1/c(=N/C(=S)N(C)C)ss/c1=N\C(=S)N(C)C,> 100,–,> 100 µM,> 100 µM,> 100,> 100,> 100 µM,> 100 µM,> 100 µM,–,–,–,–,–,–,–,–,–,–,–
O=C(O/N=C1/CCC/C1=C\c1ccccc1)c1ccc([N+](=O)[O-])cc1,> 100,> 100 µM,> 100 µM,> 100 µM,–,91.3,> 100 µM,> 100 µM,> 100 µM,–,–,–,–,–,–,–,–,–,–,–
CC(=O)/C=C/c1cccc(N=S)c1,> 63,48.4 µM,31 µM,> 81.9 µM,> 87.5,> 91.8,20.8 µM,> 53.3 µM,> 100 µM,–,–,–,–,–,–,–,–,–,–,–
C1CN2N3CCCC23C1 (stereo not drawn),> 100,> 100 µM,> 100 µM,> 100 µM,> 100,> 100,> 100 µM,> 100 µM,> 100 µM,–,–,–,–,–,–,–,–,–,–,–
O=C(Nc1ccccc1[N+](=O)[O-])c1ccccc1,> 100,> 100 µM,> 100 µM,> 100 µM,> 100,> 100,> 100 µM,> 100 µM,> 100 µM,–,–,–,–,–,–,–,–,–,–,–
C[Si](C)(C)c1ccc(CC2(Cc3ccc([Si](C)(C)C)cc3)CCNC2)cc1,18.9,3.93 µM,3.35 µM,3.8 µM,13.7,7.67,3.02 µM,9.37 µM,15.4 µM,–,–,–,–,–,–,–,–,–,–,–
CCC1CCC2CCCC(C)N12 (stereo not drawn),> 100,> 100 µM,> 100 µM,–,> 100,> 100,> 100 µM,> 100 µM,–,–,–,–,–,–,–,–,–,–,–,–
O=C(O)CCCc1ccc(N(CCCl)CCCl)cc1,–,56.7 µM and 322 µM and 209 µM,57.8 µM and 366 µM and 159 µM,52 µM and 402 µM and 498 µM,–,–,29.9 µM and 219 µM and 251 µM,30.3 µM and 180 µM,45.4 µM and 274 µM and 374 µM,18.1 µM and 133 µM,4.21,–,379 µM and 431 µM,20.6 µM and 173 µM,17.5 µM and 68 µM,20.4 µM and 196 µM,–,–,–,–
CC1CCC[P+](Cc2ccccc2)(c2ccccc2)CC1 (stereo not drawn),> 100,–,> 100 µM,> 100 µM,> 100,> 100,> 100 µM,> 100 µM,> 100 µM,–,–,–,–,–,–,–,–,–,–,–

# From PubChem BioAssay (NCI)
